From patent US20170248586A1, “Marker For Depression, Assay Method, Method For Determining Depression, Screening Method For Antidepressants, And Kit” (MEIJO UNIVERSITY, priority 2013, published 2017)

Assays:
[1] = system: MAGE-D1 gene-deficient mice; experiment: Forced swim test, evaluation of depression-like behavior in model mice; assay type: in vivo, mouse; details: for average value of immobility time: immobility measured for 10 minutes, 0 mg/kg group 425 seconds; for depression-like behavior in model mice: FIG. 1A desipramine, FIG. 1B atomoxetine; for increase in immobility time of model mice in the forced swim test (result in words): desipramine 10 mg/kg or atomoxetine 3 mg/kg i.p., FIGS. 1A and 1B
From the text: A targeting vector (Stratagene: pBlueScript) for homologous recombination between a MAGE-D1 gene (Gene bank: NM_019791.2) exon and a drug (G418)-resistant gene (GenBank: U00004.1) was electroporated into embryo stem (ES) cells derived from 129Svj mice (supplied from National Center for Geriatrics and Gerontology), and drug-resistant colonies were selected. A homologous recombinant was identified from the selected drug-resistant colonies by Southern blotting. The identified target homologous recombinant ES cell clone was injected into C57BL/6J mouse blastocyst-stage embryos to generate chimeric mice. The chimeric mice were mated with wild-type C57BL/6J mice to generate F1 heterozygous MAGE-D1 gene-deficient mice. The heterozygous MAGE-D1 gene-deficient mice were mated with wild-type C57BL/6J mice up to the F10 generation. The mice having a 99.9% C57BL/6J genetic background were used (When mating with a C57BL/6J mouse is performed once, about half of the genes of a newborn mouse are derived from the C57BL/6J mouse used for mating. That is, it is considered that when mating with a C57BL/6J mouse is performed n times, about [1−(½)^n+1]×100% of genes are derived from the C57BL/6J mouse.) The mice having such a genetic background were defined as MAGE-D1 gene-deficient mice (hereinafter, also referred to as model mice) and used in the following tests.
(§1) Experimental Equipment and Procedure: A water bath (diameter 15 cm×height 20 cm) filled with water (water temperature: about 22° C., depth: 13 cm) was used as experimental equipment. A wild-type C57BL/6J mouse as a control or a model mouse was placed in the water bath, and just after that, immobility time was measured by Scanet MV-10 AQ (Brain Science Idea, Osaka, Japan) every 1 minute for 10 minutes.
(§2) Thirty minutes before the test, 10 mg/kg of desipramine (Sigma, St. Louis, Mo.) or 3 mg/kg of atomoxetine (LKT Laboratories, Inc, MN) dissolved in normal saline was intraperitoneally administered. As a control, the solvent was intraperitoneally administered.
(§3) In Examples, MAGE-D1 gene-deficient mice were used as animal models. The forced swim test was used for evaluating depression-like behavior. In the forced swim test, a mouse is placed in a narrow cylinder filled with water so as to recognize the impossibility of escape therefrom, and the time that the mouse floats on water without moving is evaluated as decreased motivation. […] Each administration test was performed in triplicate, and therefore graphs in FIGS. 1A and 1B show average values.

wild-type C57BL/6J mouse = experiment: Forced swim test in control mice; assay type: in vivo; details: immobility measured for 10 minutes, 0 mg/kg group 203 seconds
Procedure: as §1, §2, §3

[2] = 3 mg/kg intraperitoneally 30 min before test
[3] = 10 mg/kg intraperitoneally 30 min before test

SMILES | average value of immobility time [1, 2] [s] | depression-like behavior in model mice [1] | increase in immobility time of model mice in the forced swim test (result in words) [1] | average value of immobility time (wild-type C57BL/6J mouse; [2]) [s] | average value of immobility time [1, 3] [s] | average value of immobility time (wild-type C57BL/6J mouse; [3]) [s]
CNCC[C@@H](Oc1ccccc1C)c1ccccc1 [atomoxetine] | 283 | relieved | significantly reduced | 205 |  | 
CNCCCN1c2ccccc2CCc2ccccc21 [desipramine] |  | relieved | significantly reduced |  | 334 | 215
